From article PMC9011347, “Small-Molecule Inhibitors Targeting Lipolysis in Human Adipocytes” (Journal of the American Chemical Society, 2022) come the findings set out here.

The structures appear in SMILES notation. Several values for one entry are separate records, joined by “and”; a condition that tells them apart may be missing. Equal values may be shown once. Read-outs that look alike come from different tables or passages of the source.

Type in all cases: biochemical
Experiment [1] deals with T1, mouse ATGL (aa 1–288) (Mus musculus, UniProt Q8BJ56).
T1 construct: mouse ATGL (aa 1–288); host or cells: Expi293 cells, crude lysate
The experiment can be described thus: TAG hydrolase assay, wild-type and chimeric ATGL variants. As to conditions: wild-type mouse ATGL (aa 1–288). An excerpt: (§1) Since experimental three-dimensional (3D) structures for ATGL are currently not available, we utilized chimeric variants of mouse and human ATGL for the identification of binding sites. The constructs c1–c9 (Figure 5a) comprised the N-terminal […] of ATGL, which are sufficient to retain enzymatic activity.[50] In variants c1 and c2, exchange of the N-terminal 158 aa between human and mouse ATGL switched inhibitor reactivity.
(§2) Figure 5 Analysis of chimeric proteins comprising human and mouse ATGL. (a) Schematic view of the minimal active domain of wild-type and chimeric ATGL variants (c1–c9). Nonidentical aa are indicated in blue and red for mouse and human ATGL, respectively. ATGL variants were expressed in Expi293 cells and TAG hydrolase activity was determined in cell lysates in the presence or absence of NG-497 (10 μM) and Atglistatin (10 μM), respectively. Inhibition of ATGL variants by respective inhibitors (tick mark) and lack of inhibition (cross) is indicated at the right edge. The expression of all ATGL variants was confirmed by Western blotting analysis (Figure S6). […]
(§3) Expression of recombinant ATGL constructs and preparation of cell lysates. […] Protein concentrations were determined using Bio-Rad protein assay (Bio-Rad 785, Bio-Rad Laboratories, Munich, Germany) using BSA as standard. […]

Experiment [2] concerns the target T2, c1 (human aa 1–158 and mouse aa 159–288) (Homo sapiens, UniProt Q96AD5, L232M/Q250R/R257Q).
T2 construct: c1 (human aa 1–158 and mouse aa 159–288); host or cells: Expi293 cells, crude lysate
The experiment can be described thus: TAG hydrolase assay, chimeric ATGL variants. The note with it: chimeric variant c1.
Excerpt: as §1
(§4) Figure 5 Analysis of chimeric proteins comprising human and mouse ATGL. (a) Schematic view of the minimal active domain of wild-type and chimeric ATGL variants (c1–c9). Nonidentical aa are indicated in blue and red for mouse and human ATGL, respectively. ATGL variants were expressed in Expi293 cells and TAG hydrolase activity was determined in cell lysates in the presence or absence of NG-497 (10 μM) and Atglistatin (10 μM), respectively. Inhibition of ATGL variants by respective inhibitors (tick mark) and lack of inhibition (cross) is indicated at the right edge. The expression of all ATGL variants was confirmed by Western blotting analysis (Figure S6). (b) Dose-dependent inhibition of human ATGL (aa 1–288) and c1 (human aa 1–158 and mouse aa 159–288) by NG-497. (c) Dose-dependent inhibition of mouse ATGL (aa 1–288) and c2 (mouse aa 1–158 and human aa 159–288) by Ai. IC50 values are shown in the insets. Data are presented as relative inhibition of respective DMSO controls and are indicated as mean ± SD. (d) 3D homology model of the minimal active domain of mouse ATGL (M1–L254) depicted as a cartoon. Residues 1–178 are in blue, and residues 179–254 are in gray. S47 and D166 comprising the active site are represented as green sticks. T101, C106, R109, N111, and S133 are colored in orange, A60, N68, I69, T93, C97, and T146 are colored in magenta. TEXT PRINTED IN THE PICTURE: (b) NG-497: IC50 [μM] (human): 1.3±0.1; IC50 [μM] (c1): 1.3±0.1 | (b) Ai: IC50 [μM] (human): n.det.; IC50 [μM] (c1): n.det. | (c) NG-497: IC50 [μM] (mouse): n.det.; IC50 [μM] (c2): n.det. | (c) Ai: IC50 [μM] (mouse): 2.5±0.3; IC50 [μM] (c2): 2.4±0.1 […]
(§5) Experimental details, materials, and methods
(§6) Expression of recombinant ATGL constructs and preparation of cell lysates. Expi293 cells were cultivated in Expi293 Expression Medium (GIBCO, Thermo Fisher Scientific, Waltham, USA) at standard conditions (37°C, 5% CO2, 95% humidified atmosphere, 125 rpm). DNA constructs containing ATGL from different species and chimeric ATGL variants in pcDNA3.1(+)myc-His C Vector were obtained from BioCat GmbH (Heidelberg, Germany). […] Protein concentrations were determined using Bio-Rad protein assay (Bio-Rad 785, Bio-Rad Laboratories, Munich, Germany) using BSA as standard. […]

Experiment [3] deals with T3, c2 (mouse aa 1–158 and human aa 159–288) (Mus musculus, UniProt Q8BJ56, M232L/Q257R/R250Q).
T3 construct: host or cells: Expi293 cells, cell lysate
Put plainly: TAG hydrolase assay, chimeric ATGL variants. The note with it: chimeric variant c2.
Excerpt: as §1, §4, §5, §6

The target in experiment [4] is T4, human ATGL (aa 1–288) (Homo sapiens, UniProt Q96AD5).
T4 construct: human ATGL (aa 1–288); host or cells: Expi293 cells, crude lysate
The experiment can be described thus: TAG hydrolase assay, wild-type and chimeric ATGL variants in Expi293 lysates.
Excerpt: as §1, §2, §3

T1 sequence (Q8BJ56 1-288): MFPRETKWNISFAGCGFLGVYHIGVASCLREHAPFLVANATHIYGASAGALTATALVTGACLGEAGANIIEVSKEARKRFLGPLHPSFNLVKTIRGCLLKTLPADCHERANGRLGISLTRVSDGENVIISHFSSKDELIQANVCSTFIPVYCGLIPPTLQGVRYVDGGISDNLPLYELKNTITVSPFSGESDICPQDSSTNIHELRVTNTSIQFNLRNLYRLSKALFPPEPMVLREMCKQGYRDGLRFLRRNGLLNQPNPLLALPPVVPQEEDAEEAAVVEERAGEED
T3 sequence (Q8BJ56 with tags, fused parts or gaps M232L/R250Q/Q257R): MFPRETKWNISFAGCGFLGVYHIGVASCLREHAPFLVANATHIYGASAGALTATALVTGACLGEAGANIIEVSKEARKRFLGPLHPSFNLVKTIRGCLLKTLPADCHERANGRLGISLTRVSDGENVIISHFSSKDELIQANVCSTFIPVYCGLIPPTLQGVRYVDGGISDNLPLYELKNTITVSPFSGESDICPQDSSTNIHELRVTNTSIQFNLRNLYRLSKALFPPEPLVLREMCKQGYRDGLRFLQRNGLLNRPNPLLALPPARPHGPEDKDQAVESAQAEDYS
T2 sequence (Q96AD5 with tags, fused parts or gaps L232M/Q250R/R257Q): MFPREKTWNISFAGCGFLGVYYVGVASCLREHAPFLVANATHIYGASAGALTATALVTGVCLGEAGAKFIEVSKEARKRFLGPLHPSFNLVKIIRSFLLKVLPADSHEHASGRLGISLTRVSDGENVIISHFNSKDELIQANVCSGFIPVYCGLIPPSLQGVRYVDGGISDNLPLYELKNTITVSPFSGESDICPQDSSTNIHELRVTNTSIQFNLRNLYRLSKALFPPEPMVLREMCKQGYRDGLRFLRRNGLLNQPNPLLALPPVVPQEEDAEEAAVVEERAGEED
T4 sequence (Q96AD5 1-288): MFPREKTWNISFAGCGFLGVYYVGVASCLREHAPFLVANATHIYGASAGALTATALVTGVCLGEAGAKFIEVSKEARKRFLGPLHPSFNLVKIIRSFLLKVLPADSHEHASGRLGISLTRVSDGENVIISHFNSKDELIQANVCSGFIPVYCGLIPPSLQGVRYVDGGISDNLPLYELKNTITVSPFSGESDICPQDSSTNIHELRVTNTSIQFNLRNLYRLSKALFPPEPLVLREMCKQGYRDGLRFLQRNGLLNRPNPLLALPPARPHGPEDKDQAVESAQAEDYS

With `CCOc1ccc(-c2cc(OC)cc(C(=O)OC(C)C)n2)cc1` [NG-497], the IC50 result in experiment [1] was “ineffective”; in experiment [2] (read-out: IC50), 1300 nM; in experiment [3], “ineffective”; in experiment [4] (read-out: IC50) it was 1300 nM.
For the molecule `CN(C)C(=O)Nc1cccc(-c2ccc(N(C)C)cc2)c1` [Atglistatin, reference compound], the 50% inhibitory concentration (IC50) in experiment [1] (read-out: IC50) is ~2500 nM and 2500 nM; in experiment [2] it was “ineffective”; in experiment [3] (read-out: IC50), ~2500 nM and 2400 nM; in experiment [4], “ineffective”.
